Legend:
Experiment in all cases: relative viability (nuclei count vs DMSO), 5 days (fraction); higher = more cells survive
Seliciclib + Trametinib = compound: CC[C@H](CO)Nc1nc(NCc2ccccc2)c2ncn(C(C)C)c2n1 [Seliciclib] + CC(=O)Nc1cccc(-n2c(=O)n(C3CC3)c(=O)c3c(Nc4ccc(I)cc4F)n(C)c(=O)c(C)c32)c1 [Trametinib] (partner 0.02 µM)
In short: (§1)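 Values are medians from duplicate plates. Each reflects relative viability, defined as the nuclei count of treated wells over that of vehicle wells. Lung cancer cell lines in 1536-well plates were pin-tool dosed one day after seeding with one drug alone or with a fixed anchor-drug dose plus five library-drug doses (not always all listed) in √10 steps, then fixed, stained and imaged at 4× after 5 days.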

Seliciclib + Bortezomib = compound: CC[C@H](CO)Nc1nc(NCc2ccccc2)c2ncn(C(C)C)c2n1 [Seliciclib] + CC(C)C[C@H](NC(=O)[C@H](Cc1ccccc1)NC(=O)c1cnccn1)B(O)O [Bortezomib] (partner 0.002 µM)
In short: as §1

Seliciclib + Pictilisib = compound: CC[C@H](CO)Nc1nc(NCc2ccccc2)c2ncn(C(C)C)c2n1 [Seliciclib] + CS(=O)(=O)N1CCN(Cc2cc3nc(-c4cccc5[nH]ncc45)nc(N4CCOCC4)c3s2)CC1 [Pictilisib] (partner 1 µM)
In short: as §1

Seliciclib + Olaparib = compound: CC[C@H](CO)Nc1nc(NCc2ccccc2)c2ncn(C(C)C)c2n1 [Seliciclib] + O=C(c1cc(Cc2n[nH]c(=O)c3ccccc23)ccc1F)N1CCN(C(=O)C2CC2)CC1 [Olaparib] (partner 8 µM)
In short: as §1

Cell Line	relative viability (Seliciclib + Trametinib; first compound 0.08 µM)	relative viability (Seliciclib + Trametinib; first compound 0.253 µM)	relative viability (Seliciclib + Trametinib; first compound 0.8 µM)	relative viability (Seliciclib + Trametinib; first compound 2.53 µM)	relative viability (Seliciclib + Trametinib; first compound 8 µM)	relative viability (Seliciclib + Bortezomib; first compound 0.08 µM)	relative viability (Seliciclib + Bortezomib; first compound 0.253 µM)	relative viability (Seliciclib + Bortezomib; first compound 0.8 µM)	relative viability (Seliciclib + Bortezomib; first compound 2.53 µM)	relative viability (Seliciclib + Bortezomib; first compound 8 µM)	relative viability (Seliciclib + Pictilisib; first compound 0.08 µM)	relative viability (Seliciclib + Pictilisib; first compound 0.253 µM)	relative viability (Seliciclib + Pictilisib; first compound 0.8 µM)	relative viability (Seliciclib + Pictilisib; first compound 2.53 µM)	relative viability (Seliciclib + Pictilisib; first compound 8 µM)	relative viability (Seliciclib + Olaparib; first compound 0.08 µM)	relative viability (Seliciclib + Olaparib; first compound 0.253 µM)	relative viability (Seliciclib + Olaparib; first compound 0.8 µM)	relative viability (Seliciclib + Olaparib; first compound 2.53 µM)	relative viability (Seliciclib + Olaparib; first compound 8 µM)
201T	0.701	0.716	0.694	0.727	0.632	1.12	1.18	1.07	1.1	1.01	0.712	0.693	0.676	0.656	0.626	0.805	0.834	0.812	0.882	0.805
A549											0.501	0.595	0.525	0.507	0.273	0.3	0.41	0.251	0.26	0.361
A-427	0.767	0.816	0.797	0.678	0.586	0.975	0.944	1.04	0.925	0.916	0.753	0.737	0.646	0.688	0.695	0.79	0.714	0.712	0.617	0.639
ABC-1						0.318	0.312	0.296	0.274	0.339	0.773	0.927	0.619	0.42	0.424	0.864	0.741	0.615		0.782
BEN	0.976	0.809	1.1	0.991	1.04	0.871		0.82	0.701	0.659	0.596		0.549	0.675	0.545	0.898	1.01	1.16	1.01	0.815
CAL-12T	0.367	0.337	0.324	0.257	0.2	0.936	1.36	0.888	0.785	0.567	0.304	0.566	0.39	0.303	0.221	0.759	0.712	0.742	0.585	0.472
COR-L23	0.577	0.464	0.577	0.566	0.471	1.01	1.1	0.962	1.06	0.751	0.63	0.782	0.86	0.584	0.49	0.302	0.451	0.345	0.364	0.297
COR-L 105	0.469	0.36	0.427	0.451	0.401	0.876	0.961	0.676	0.535	0.774	0.379	0.379	0.371	0.32	0.36	0.656	0.602	0.7	0.713	0.733
Calu-6						0.969	0.938	1.12	1.01	0.989	0.93	0.969	0.937	0.917	0.759	0.602	0.658	0.565	0.624	0.532
ChaGo-K-1	0.838	0.87	0.894	0.873	0.745	0.914	0.517	0.947	0.83	0.454	0.766	0.533	0.638	0.513	0.378	0.424	0.464	0.379	0.425	0.359
EBC-1						0.554	0.553	0.623	0.466	0.379	0.449	0.407	0.387	0.354	0.343	0.712	0.651	0.734	0.665	0.461
EKVX	0.373	0.252	0.286	0.31	0.328	1.03	1.07	0.985	0.854	0.861	0.42	0.5	0.417	0.423	0.305	0.772	1.08	0.749	0.682	0.775
EMC-BAC-2	0.883	0.934	0.809	0.721	0.778	1.05	0.91	1.11	0.836	1.07	0.505	0.526	0.497	0.392	0.51	0.493	0.494	0.59	0.447	0.446
EPLC-272H	0.298	0.269	0.309	0.258	0.244	0.872	0.676	0.991	1.03	0.907	0.316	0.338	0.287	0.174	0.3	0.919	0.729	0.667	0.791	0.441
H3255	0.629	0.52	0.652	0.631	0.494	0.833	0.828	0.753	0.605	0.625	0.47	0.567	0.487	0.483	0.502	0.545	0.575	0.552	0.518	0.518
HARA	0.675	0.719	0.565	0.828	0.44	1.09	1.27	1.04	1.25	1.03	0.284	0.376	0.339	0.422	0.283	1.05	0.66	0.784	0.909	0.924
HCC-15	0.393	0.343	0.369	0.37	0.357	1.05	1.1	0.898	0.966	0.826	0.705	0.857	0.473	0.791	0.548	0.707	0.792	0.72	0.796	0.669
HCC-44	1.09	1.17	0.999	0.933	1.06	0.841	0.885	0.82	0.758	0.881	0.639	0.691	0.534	0.46	0.44	0.978	1.03	1.01	0.966	0.973
HCC-78	0.737	0.94	0.746	0.83	0.513	0.532	0.471	0.433	0.373	0.396	0.203	0.274	0.187	0.174	0.181	0.693	0.906	0.695	0.604	0.499
HCC-366	0.332	0.253	0.368	0.317	0.239	0.987	1.06	1.01	1.08	0.908	0.12	0.137	0.106	0.109	0.163	0.335	0.422	0.35	0.456	0.234

Cell Line	relative viability (Seliciclib + Trametinib; first compound 0.08 µM)	relative viability (Seliciclib + Trametinib; first compound 0.253 µM)	relative viability (Seliciclib + Trametinib; first compound 0.8 µM)	relative viability (Seliciclib + Trametinib; first compound 2.53 µM)	relative viability (Seliciclib + Trametinib; first compound 8 µM)	relative viability (Seliciclib + Bortezomib; first compound 0.08 µM)	relative viability (Seliciclib + Bortezomib; first compound 0.253 µM)	relative viability (Seliciclib + Bortezomib; first compound 0.8 µM)	relative viability (Seliciclib + Bortezomib; first compound 2.53 µM)	relative viability (Seliciclib + Bortezomib; first compound 8 µM)	relative viability (Seliciclib + Pictilisib; first compound 0.08 µM)	relative viability (Seliciclib + Pictilisib; first compound 0.253 µM)	relative viability (Seliciclib + Pictilisib; first compound 0.8 µM)	relative viability (Seliciclib + Pictilisib; first compound 2.53 µM)	relative viability (Seliciclib + Pictilisib; first compound 8 µM)	relative viability (Seliciclib + Olaparib; first compound 0.08 µM)	relative viability (Seliciclib + Olaparib; first compound 0.253 µM)	relative viability (Seliciclib + Olaparib; first compound 0.8 µM)	relative viability (Seliciclib + Olaparib; first compound 2.53 µM)	relative viability (Seliciclib + Olaparib; first compound 8 µM)
HCC-827	0.494	0.519	0.525	0.533	0.365	1.08	1.03	1.05	1.04	0.881	0.953	0.963	0.811	1.03	0.925	0.623	0.66	0.644	0.612	0.624
HOP-62	0.377	0.302	0.377	0.418	0.431	0.837	0.754	0.684	0.868	0.331	0.778	0.61	0.563	0.588	0.62	0.445	0.398	0.299	0.264	0.391
IA-LM						0.78	0.94	0.708	0.817	0.729	0.338	0.412	0.344	0.346	0.232	0.8	0.973	0.879	0.72	0.745
LC-2-ad	0.9	0.976	0.867	0.907	0.79	1.02	0.514	0.986	0.958	0.816	0.487	0.572	0.34	0.205	0.0269	0.64	0.759	0.681	0.794	0.638
LCLC-97TM1	0.244	0.173	0.226	0.178	0.155	0.816	0.767	0.646	0.163	0.195	0.281	0.168	0.17		0.142	0.453	0.47	0.322	0.381	0.265
LK-2	0.747	0.575	0.69	0.693	0.577						0.591	0.562	0.614	0.541	0.447	0.817	0.723	0.739	0.398	0.718
NCI-H358	0.137	0.124	0.143	0.104	0.0859						0.346	0.408	0.289	0.312	0.216	0.588	0.595	0.546	0.561	0.346
NCI-H522	0.735	0.672	0.778	0.673	0.713											0.797	0.621	0.533	0.64	0.59
NCI-H1299						0.995	1.1	0.985	1.04	0.992	0.792	0.765	0.72	0.841	0.656	0.967	1.08	0.957	0.949	0.954
NCI-H1395	1.04	0.843	0.968		1.04						0.6	0.757	0.641	0.535	0.649	0.459	0.422	0.43		0.448
NCI-H1563						0.856	0.79	0.892	0.806	0.861	0.649	0.621	0.681	0.567	0.691					
NCI-H1648	0.5	0.501	0.478	0.406	0.394											1.2	0.968	0.735	0.734	0.397
NCI-H1703						0.416	0.297	0.371	0.353	0.249	0.252	0.234	0.26	0.225	0.241	0.467	0.54	0.528	0.439	0.352
NCI-H1793	0.364	0.433	0.461	0.411	0.291						0.282	0.339	0.317	0.32	0.294	0.942	0.655	0.834	1.09	0.761
NCI-H1944	0.399	0.277	0.428	0.48	0.368						0.375	0.35	0.333	0.283	0.303	0.377	0.394	0.348	0.425	0.392
NCI-H2170	0.85		0.884	0.927	0.888						0.306	0.255	0.286	0.243	0.336	0.521		0.582	0.654	0.609
NCI-H2342	0.705	0.598	0.865	0.752	0.887											0.417	0.394	0.347	0.429	0.453
SK-MES-1	0.478	0.482	0.55	0.602	0.504						0.317	0.349	0.353	0.335	0.31	0.764	0.726	0.647	0.564	0.342
SW 900	0.632	0.833	0.734	0.514	0.524											0.769	0.89	0.79	0.721	0.437
